{"source": "paper PMC12406685", "about": "“Thiazole substitution of a labile amide bond—a new option toward antiplasmodial pantothenamide-mimics” (Antimicrobial Agents and Chemotherapy, 2025)", "key": {"[1]": {"test_system": "intraerythrocytic P. falciparum", "assay": "In vitro parasite proliferation assay (SYBR Safe-based fluorescence)", "type": "cell-based, Plasmodium falciparum (3D7 strain)", "details": "for Antiplasmodial IC50 range, in words: 1 µM pantothenate; for IC50: Plasmodium falciparum, intraerythrocytic stage, 96 h", "description": "Culturing of intraerythrocytic stage P. falciparum parasites (3D7 strain) was carried out using a method adapted from Trager and Jensen ([97]) and Allen and Kirk ([98]). Parasites were maintained within human, male or female, erythrocytes (typically Group O+, Rh+, 4% hematocrit) in RPMI-1640 medium (Thermo Fisher Scientific, catalogue number 72400120) supplemented with 25 mM HEPES, 11 mM glucose, 200 μM hypoxanthine, 24 μg/mL gentamicin and 6 g/L Albumax II on a horizontally rotating shaking incubator (New Brunswick Innova 42/[…]) at 37°C under an atmosphere of 96% nitrogen, 3% carbon dioxide, and 1% oxygen. To evaluate the effect of each compound on the in vitro proliferation of P. falciparum parasites, a SYBR Safe-based fluorescence assay was used as previously described ([32]). All pantothenamide-mimics tested were initially dissolved to a concentration of 200 mM in DMSO. The final DMSO concentration in the assay never exceeded 0.1% (vol/vol). Assays were performed using the same medium used to culture the parasites. […] Assays were set up with synchronous ring-stage P. falciparum-infected erythrocytes in 96-well microtiter plates. Parasites were synchronized using 5% (wt/vol) sorbitol ([100]). […] P. falciparum-infected erythrocytes incubated in the presence of 0.5 μM chloroquine were used as a non-proliferation control, and those incubated in the absence of compounds and chloroquine served as a 100% parasite proliferation control. To minimize “edge effects” ([101], [102]), the outermost rows and columns of the microtiter plates were not used in the proliferation assays and were filled with 200 μL of medium. The plates were then incubated at 37°C for 96 h under a low-oxygen atmosphere. At the end of the incubation, plates were frozen at -80°C to lyse the cells. […] The fluorescence in the non-proliferation control wells was subtracted from the fluorescence readings in the other wells prior to further analysis. Parasite proliferation, calculated as a percentage of the fluorescence measured in the test wells relative to the fluorescence measured in the 100% parasite proliferation control wells, was then plotted against the logarithm of the compound concentration. […] IC50 values (determined from the sigmoidal curves) were averaged from three independent experiments."}, "PfPanK [2]": {"biological_target": "PfPanK (Plasmodium falciparum, UniProt Q8IL92+Q8ILP4)", "sequence (Q8ILP4 entry or part of it)": "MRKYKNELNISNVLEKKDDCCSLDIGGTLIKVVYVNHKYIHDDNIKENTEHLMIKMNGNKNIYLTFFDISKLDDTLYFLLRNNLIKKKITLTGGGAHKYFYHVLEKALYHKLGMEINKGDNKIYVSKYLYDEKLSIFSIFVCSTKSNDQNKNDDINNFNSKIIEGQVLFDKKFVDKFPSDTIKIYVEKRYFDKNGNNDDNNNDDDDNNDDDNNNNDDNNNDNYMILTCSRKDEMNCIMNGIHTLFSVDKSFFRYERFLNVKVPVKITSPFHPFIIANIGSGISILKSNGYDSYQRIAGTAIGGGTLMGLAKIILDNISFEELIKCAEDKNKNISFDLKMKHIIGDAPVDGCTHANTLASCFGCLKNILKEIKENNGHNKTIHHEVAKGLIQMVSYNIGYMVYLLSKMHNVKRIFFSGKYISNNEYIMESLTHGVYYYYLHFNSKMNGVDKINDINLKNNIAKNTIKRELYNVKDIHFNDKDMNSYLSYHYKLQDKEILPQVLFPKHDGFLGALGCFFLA", "sequence (Q8IL92 entry or part of it)": "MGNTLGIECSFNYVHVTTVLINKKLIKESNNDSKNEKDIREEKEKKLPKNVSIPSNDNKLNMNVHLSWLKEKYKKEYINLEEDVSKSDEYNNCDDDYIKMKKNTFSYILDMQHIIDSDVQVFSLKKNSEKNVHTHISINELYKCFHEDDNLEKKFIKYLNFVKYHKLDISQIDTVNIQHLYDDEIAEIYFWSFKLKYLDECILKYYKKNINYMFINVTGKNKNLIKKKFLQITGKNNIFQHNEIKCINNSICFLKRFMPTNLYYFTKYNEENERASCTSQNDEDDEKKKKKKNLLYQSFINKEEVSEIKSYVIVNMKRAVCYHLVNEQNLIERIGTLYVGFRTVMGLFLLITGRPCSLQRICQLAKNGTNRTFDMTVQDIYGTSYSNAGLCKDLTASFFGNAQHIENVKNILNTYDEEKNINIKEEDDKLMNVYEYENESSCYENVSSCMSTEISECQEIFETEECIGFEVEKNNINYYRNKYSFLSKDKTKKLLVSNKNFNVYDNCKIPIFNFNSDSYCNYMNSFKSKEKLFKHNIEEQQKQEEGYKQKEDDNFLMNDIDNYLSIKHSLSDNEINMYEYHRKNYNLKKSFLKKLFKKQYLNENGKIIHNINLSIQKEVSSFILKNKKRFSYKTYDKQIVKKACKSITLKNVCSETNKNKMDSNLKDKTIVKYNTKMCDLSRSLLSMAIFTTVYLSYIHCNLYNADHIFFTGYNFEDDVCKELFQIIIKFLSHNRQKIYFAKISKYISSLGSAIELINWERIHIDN", "assay": "[14C]pantothenate phosphorylation assay in P. falciparum lysates (Somogyi reagent)", "type": "biochemical", "details": "for inhibition at 2 µM: read-out: Inhibition of pantothenate phosphorylation", "description": "(§1) Parasite lysates were prepared from saponin-isolated mature trophozoite-stage parasites as described by Saliba et al. ([14]), with modifications. Briefly, a culture with predominantly trophozoite stage parasites was thoroughly mixed with saponin (0.05% [wt/vol] final concentration) and centrifuged at 2,000 × g for 8 min at 4°C. The pelleted parasites were then transferred to a 1.5 mL tube and washed three times (16,000 × g, 1 min each time) with cold malaria saline (125 mM NaCl, 5 mM KCl, 25 mM HEPES, 20 mM glucose, 1 mM MgCl2, pH 7.1). Subsequently, washed saponin-isolated parasites were suspended in 1 mL of 10 mM Tris/Cl, pH 7.4, followed by trituration (10 times) through a SafetyGlide injection needle (25-gauge). The lysates were then centrifuged at 16,000 × g for 30 min at 4°C, and the supernatant was transferred to a new tube. The concentration of the lysates was then determined using the Bradford reagent.\n(§2) Phosphorylation of [^14C]pantothenate was determined using a combination of zinc sulphate (ZnSO4) and barium hydroxide (Ba(OH)2) (Somogyi reagent) as previously described ([78]). In the 125 min time course, each reaction (650 µL) contained a final concentration of 50 mM Tris-Cl (pH 7.4), 5 mM ATP, 5 mM MgCl2, 2 µM (0.1 µCi/mL) [^14C]pantothenate, and 60 µg of total parasite lysate. The compounds were added at their 10× antiplasmodial IC50 values or at various concentrations to generate dose–response curves. Mixtures were incubated at 37°C throughout the experiment, and reactions were initiated by the addition of the lysates. A reaction with identical components to the test reactions but lacking the parasite lysate was prepared to serve as a no-phosphorylation negative control, and a reaction with DMSO vehicle control (0.2% vol/vol) served as a positive control. At pre-determined time points, 50 µL of the reaction mixture was transferred in triplicate to wells of a 96-well filter plate with 0.2 µm hydrophilic polyvinylidene fluoride (PVDF) membrane filter (Corning), which had been pre-loaded with 50 µL of 150 mM Ba(OH)2. The reaction mixtures were thoroughly mixed with the Ba(OH)2 in the wells to precipitate the enzyme and terminate the phosphorylation reaction. After all reactions had been terminated, phosphorylated compounds in each well were precipitated by the addition of 50 µL of 150 mM ZnSO4 to generate the Somogyi reagent. The plate was then washed twice with deionized H2O and once with 95% (vol/vol) ethanol using a vacuum manifold to remove the non-phosphorylated [^14C]pantothenate and was subsequently dried overnight at 37°C in a non-humidified incubator. The following day, 30 µL of Microscint-O (PerkinElmer) was added to each well, and the plate was sealed on the top and bottom with TopSeal-A Plus sealing film (PerkinElmer). A Packard Microplate Scintillation and Luminescence Counter was used to measure the radioactivity in each well immediately after the plate had been sealed. To determine the total radioactivity in each phosphorylation assay, 50 µL of each reaction mixture was added to the wells of an OptiPlate-96 microplate (PerkinElmer) in triplicate and was then thoroughly mixed with 150 µL of Microscint-40 (PerkinElmer), and the radioactivity was measured in the same manner. Phosphorylation of [^14C]pantothenate, calculated as a percentage of the radioactivity measured in the test wells relative to the total radioactivity in the phosphorylation assay, was then plotted against the reaction time. Each data set was analyzed by linear regression, from which the phosphorylation rate of each reaction was then determined and expressed as a percentage of the phosphorylation rate of the DMSO-positive control reaction."}, "PfPanK [3]": {"test_system": "PfPanK", "assay": "[14C]pantothenate phosphorylation assay in P. falciparum lysates (Somogyi reagent)", "type": "biochemical", "details": "PfPanK versus HsPanK3 selectivity", "description": "as §1, §2"}, "[4]": {"details": "RPMI-1640 containing 1 µM pantothenate, mean ± SEM of three experiments, read-out: IC50 (µM) against Pf at 1 µM Pan"}, "[5]": {"details": "RPMI-1640 containing 100 µM pantothenate, read-out: IC50 (µM) against Pf at 100 µM Pan"}}, "note": "Read-outs that look alike come from different tables or passages of the source."}
{"smiles": "CCCCc1csc(CNC(=O)[C@H](O)C(C)(C)CO)n1", "note": "[Compound 1a]", "values": [{"measurement": "Antiplasmodial IC50 range, in words", "setting": "[1]", "value": "sub-micromolar range"}, {"measurement": "IC50", "setting": "[1]; [4]", "value": "0.77 ± 0.1", "unit": "µM"}, {"measurement": "IC50", "setting": "[1]; [5]", "value": "> 6.25", "unit": "µM"}, {"measurement": "inhibition at 2 µM", "setting": "PfPanK [2]", "value": "> 90", "unit": "%"}]}
{"smiles": "CCCCCc1csc(CNC(=O)[C@H](O)C(C)(C)CO)n1", "note": "[Compound 1c]", "values": [{"measurement": "IC50", "setting": "[1]; [4]", "value": "2.3 ± 0.2", "unit": "µM"}, {"measurement": "IC50", "setting": "[1]; [5]", "value": "> 25", "unit": "µM"}, {"measurement": "inhibition at 2 µM", "setting": "PfPanK [2]", "value": "> 90", "unit": "%"}]}
{"smiles": "CC(C)(CO)[C@@H](O)C(=O)NCc1nc(CCc2ccccc2)cs1", "note": "[Compound 1e]", "values": [{"measurement": "Antiplasmodial IC50 range, in words", "setting": "[1]", "value": "sub-micromolar range"}, {"measurement": "IC50", "setting": "[1]; [4]", "value": "0.77 ± 0.09", "unit": "µM"}, {"measurement": "IC50", "setting": "[1]; [5]", "value": "> 12.5", "unit": "µM"}, {"measurement": "inhibition at 2 µM", "setting": "PfPanK [2]", "value": "> 90", "unit": "%"}]}
{"smiles": "CC(C)(CO)[C@@H](O)C(=O)NCc1csc(Cc2ccccc2)n1", "note": "[Compound 2c]", "values": [{"measurement": "IC50", "setting": "[1]; [4]", "value": "2.4 ± 0.2", "unit": "µM"}, {"measurement": "IC50", "setting": "[1]; [5]", "value": "> 25", "unit": "µM"}, {"measurement": "inhibition at 2 µM", "setting": "PfPanK [2]", "value": "> 90", "unit": "%"}]}
{"smiles": "CC(C)(CO)[C@@H](O)C(=O)NCc1csc(-c2ccccc2)n1", "note": "[Compound 2e]", "values": [{"measurement": "Antiplasmodial IC50 range, in words", "setting": "[1]", "value": "sub-micromolar range"}, {"measurement": "IC50", "setting": "[1]; [4]", "value": "0.51 ± 0.02", "unit": "µM"}, {"measurement": "IC50", "setting": "[1]; [5]", "value": "> 6.25", "unit": "µM"}, {"measurement": "inhibition at 2 µM", "setting": "PfPanK [2]", "value": "~80", "unit": "%"}, {"measurement": "Fold by which IC50 at inhibiting pantothenate phosphorylation is higher than Km for pantothenate of PfPanK", "setting": "PfPanK [2]; relative to reported Km 270 ± 95 nM", "value": "approximately 2.1 fold"}, {"measurement": "Fold by which IC50 at inhibiting PfPanK-mediated pantothenate phosphorylation is lower than Km observed for HsPanK3", "setting": "PfPanK [3]", "value": 120, "unit": "fold"}]}
{"smiles": "CC(C)(CO)[C@@H](O)C(=O)NCc1cnc(-c2ccccc2)s1", "note": "[Compound 3f]", "values": [{"measurement": "IC50", "setting": "[1]; [4]", "value": "8 ± 0.7", "unit": "µM"}, {"measurement": "IC50", "setting": "[1]; [5]", "value": "> 50", "unit": "µM"}, {"measurement": "inhibition at 2 µM", "setting": "PfPanK [2]", "value": "> 90", "unit": "%"}]}
